Measurements taken from patent US4257941A, “Polycyclic nitrogen-containing compounds” (BASF Aktiengesellschaft, priority 1976, dated 1981).
Where two headings read alike, the source gives them in different places.

What was measured:
Type in all cases: in vivo
rice = test: Action on rice (Example 23); conditions: leaf; for Plant height: 66 days; for Plant height relative: control 100
Experimental: At a growth height of 11 to 13 cm the active ingredients were sprayed onto the leaves in the usual manner. The plants were measured after 66 days.

Solanum nigrum = test: Herbicidal action (Example 25)
Experimental: (§1) Paraffined paper cups having a volume of 170 cm^3 were filled with a sandy loam, and the seeds of the test plants sown therein, separated by species. (The species are also listed below.)
(§2) In the first group, treatment was effected immediately after sowing and before germination of the seeds (preemergence treatment=soil treatment). Shallow sown seeds not completely covered with soil came into contact with the active ingredients. In the second group, the plants were treated postemergence (=leaf treatment) at a growth height of from 2 to 8 cm, depending on the rate of growth and shape of the species concerned. The compounds were suspended or emulsified in water and applied with the aid of fine nozzles. The soil and plants were thoroughly sprinkler irrigated for the duration of the experiment. The cups were placed in the greenhouse and kept in the temperature range 12°-25° C. or 18°-35° C., depending on the temperature requirements of the various species. After 2 to 6 weeks the action was assessed visually on a 0 to 100 scale, 0 denoting no damage and 100 denoting plants not germinated or completely destroyed.

Lamium spp. = test: Herbicidal action (Example 25)
Experimental: as §1, §2

Galium aparine = test: Herbicidal action (Example 25); conditions: read-out: percentage damage
Experimental: as §1, §2

Poa annua = test: Herbicidal action (Example 25); conditions: for pest or weed control at 2000 g/ha / pest or weed control at 4000 g/ha / pest or weed control at 8000 g/ha: Poa annua, read-out: percentage damage; for pest or weed control at 4000 g/ha: 4.0 kg/ha; for pest or weed control at 8000 g/ha: 8.0 kg/ha
Experimental: as §1, §2

sunflowers [1] = test: Action on sunflowers (Example 24); conditions: leaf; for Plant height relative: control 100
Excerpt: The active ingredients were applied both to the soil and to the leaves.

field beans = test: Action on field beans, hydroponic (Example 17b); conditions: for Root dry substance rel. / Root length rel. / Shoot dry substance rel. / Shoot length rel.: control 100
Experimental: (§3) Young soybean plants grown in quartz sand were transferred to hydroponic treatment in 4 liter vessels and provided with a sufficient supply of nutrient solution and trace elements. The active ingredients were added (0.25 mg/vessel=0.06 ppm; 1.0 mg/vessel=0.25 ppm; 2.5 mg/vessel=0.63 ppm) at a plant height of approx. 22 cm. The plants were in continuous contact with the active ingredients. […] The roots were also shorter, but the plants had more and stronger shoots.
(§4) The action on soybeans, field beans and sunflowers was examined under the same conditions as in Example 16. The shoots and roots of all 3 crop plants were considerably shortened. Whereas in the shoots the dry substance was reduced commensurately with the shortening, the dry substance in the roots rose (particularly in soybeans) as the concentration increased.

sunflowers [2] = test: Action on sunflowers, hydroponic (Example 17c); conditions: for Root dry substance rel. / Root length rel. / Shoot dry substance rel. / Shoot length rel.: control 100
Experimental: as §3, §4

[3] = post-emergence, postemergence, 2.0 kg/ha
[4] = pre-emergence, preemergence, 2.0 kg/ha

Clc1ccc(N2N=NC3C4CC(C5N=NC45)C32)cc1 (stereo not drawn) [drawing 404]
Plant height (rice; 1.0 kg/ha): 35.0 cm | Plant height relative (rice; 1.0 kg/ha): 86.2 | Plant height (rice; 2.0 kg/ha): 33.0 cm | Plant height relative (rice; 2.0 kg/ha): 81.3 | Plant height (rice; 4.0 kg/ha): 29.5 cm | Plant height relative (rice; 4.0 kg/ha): 72.7 | Plant height (rice; 6.0 kg/ha): 28.5 cm | Plant height relative (rice; 6.0 kg/ha): 70.2

C=CCN(CC=C)C(=O)CCl [drawing 428]
percentage damage (Solanum nigrum; postemergence, 2.0 kg/ha): 10 percentage damage | percentage damage (Solanum nigrum; postemergence, 4.0 kg/ha): 10 percentage damage | percentage damage (Solanum nigrum; postemergence, 8.0 kg/ha): 20 percentage damage | percentage damage (Solanum nigrum; preemergence, 2.0 kg/ha): 0 percentage damage | percentage damage (Solanum nigrum; preemergence, 4.0 kg/ha): 15 percentage damage | percentage damage (Solanum nigrum; preemergence, 8.0 kg/ha): 25 percentage damage | percentage damage (Lamium spp.; postemergence, 2.0 kg/ha): 0 percentage damage | percentage damage (Lamium spp.; postemergence, 4.0 kg/ha): 10 percentage damage | percentage damage (Lamium spp.; postemergence, 8.0 kg/ha): 20 percentage damage | percentage damage (Lamium spp.; preemergence, 2.0 kg/ha): 25 percentage damage | percentage damage (Lamium spp.; preemergence, 4.0 kg/ha): 60 percentage damage | percentage damage (Lamium spp.; preemergence, 8.0 kg/ha): 85 percentage damage | pest or weed control at 2000 g/ha (Galium aparine; post-emergence): 5% | pest or weed control at 4000 g/ha (Galium aparine; post-emergence): 5% | pest or weed control at 8000 g/ha (Galium aparine; post-emergence): 5% | pest or weed control at 2000 g/ha (Galium aparine; pre-emergence): 70% | pest or weed control at 4000 g/ha (Galium aparine; pre-emergence): 80% | pest or weed control at 8000 g/ha (Galium aparine; pre-emergence): 90% | pest or weed control at 2000 g/ha (Poa annua; [3]): 35% | pest or weed control at 4000 g/ha (Poa annua; post-emergence, postemergence): 35% | pest or weed control at 8000 g/ha (Poa annua; post-emergence, postemergence): 40% | pest or weed control at 2000 g/ha (Poa annua; [4]): 95% | pest or weed control at 4000 g/ha (Poa annua; pre-emergence, preemergence): 98% | pest or weed control at 8000 g/ha (Poa annua; pre-emergence, preemergence): 100%

Brc1ccc(N2N=NC3C4CC(C5N=NC45)C32)cc1 (stereo not drawn) [drawing 409]
Plant height (sunflowers [1]; 1.5 kg/ha): 33.0 cm | Plant height relative (sunflowers [1]; 1.5 kg/ha): 86 | Plant height (sunflowers [1]; 6.0 kg/ha): 30.0 cm | Plant height relative (sunflowers [1]; 6.0 kg/ha): 78

Brc1ccc(N2N=NC3C4CC(C5N=NC45)C32)cc1 (stereo not drawn) [drawing 389]
Root dry substance (field beans; 0.06 ppm): 3.8 g | Root length (field beans; 0.06 ppm): 28.3 cm | Shoot dry substance (field beans; 0.06 ppm): 14.5 g | Shoot length (field beans; 0.06 ppm): 69.7 cm | Root dry substance rel. (field beans; 0.06 ppm): 63.3 | Root length rel. (field beans; 0.06 ppm): 68.5 | Shoot dry substance rel. (field beans; 0.06 ppm): 85.8 | Shoot length rel. (field beans; 0.06 ppm): 95.5 | Root dry substance (field beans; 0.25 ppm): 5.3 g | Root length (field beans; 0.25 ppm): 28.3 cm | Shoot dry substance (field beans; 0.25 ppm): 14.5 g | Shoot length (field beans; 0.25 ppm): 67.3 cm | Root dry substance rel. (field beans; 0.25 ppm): 85.5 | Root length rel. (field beans; 0.25 ppm): 68.5 | Shoot dry substance rel. (field beans; 0.25 ppm): 85.8 | Shoot length rel. (field beans; 0.25 ppm): 92.2 | Root dry substance (field beans; 0.63 ppm): 6.0 g | Root length (field beans; 0.63 ppm): 25.0 cm | Shoot dry substance (field beans; 0.63 ppm): 13.0 g | Shoot length (field beans; 0.63 ppm): 56.7 cm | Root dry substance rel. (field beans; 0.63 ppm): 96.8 | Root length rel. (field beans; 0.63 ppm): 60.5 | Shoot dry substance rel. (field beans; 0.63 ppm): 76.9 | Shoot length rel. (field beans; 0.63 ppm): 77.7

Brc1ccc(N2N=NC3C4CC(C5N=NC45)C32)cc1 (stereo not drawn) [drawing 390]
Root dry substance (sunflowers [2]; 0.06 ppm): 1.5 g | Root length (sunflowers [2]; 0.06 ppm): 18.7 cm | Shoot dry substance (sunflowers [2]; 0.06 ppm): 6.3 g | Shoot length (sunflowers [2]; 0.06 ppm): 35.0 cm | Root dry substance rel. (sunflowers [2]; 0.06 ppm): 100 | Root length rel. (sunflowers [2]; 0.06 ppm): 93.5 | Shoot dry substance rel. (sunflowers [2]; 0.06 ppm): 98.4 | Shoot length rel. (sunflowers [2]; 0.06 ppm): 84.7 | Root dry substance (sunflowers [2]; 0.25 ppm): 1.4 g | Root length (sunflowers [2]; 0.25 ppm): 16.7 cm | Shoot dry substance (sunflowers [2]; 0.25 ppm): 5.3 g | Shoot length (sunflowers [2]; 0.25 ppm): 27.3 cm | Root dry substance rel. (sunflowers [2]; 0.25 ppm): 93.3 | Root length rel. (sunflowers [2]; 0.25 ppm): 83.5 | Shoot dry substance rel. (sunflowers [2]; 0.25 ppm): 82.8 | Shoot length rel. (sunflowers [2]; 0.25 ppm): 66.1 | Root dry substance (sunflowers [2]; 0.63 ppm): 1.6 g | Root length (sunflowers [2]; 0.63 ppm): 12.7 cm | Shoot dry substance (sunflowers [2]; 0.63 ppm): 5.2 g | Shoot length (sunflowers [2]; 0.63 ppm): 27.3 cm | Root dry substance rel. (sunflowers [2]; 0.63 ppm): 106.7 | Root length rel. (sunflowers [2]; 0.63 ppm): 63.5 | Shoot dry substance rel. (sunflowers [2]; 0.63 ppm): 81.3 | Shoot length rel. (sunflowers [2]; 0.63 ppm): 66.1

c1ccc(N2N=NC3C4CC(C5N=NC45)C32)cc1 (stereo not drawn) [drawing 431]
percentage damage (Solanum nigrum; postemergence, 2.0 kg/ha): 85 percentage damage | percentage damage (Solanum nigrum; postemergence, 4.0 kg/ha): 100 percentage damage | percentage damage (Solanum nigrum; postemergence, 8.0 kg/ha): 100 percentage damage | percentage damage (Solanum nigrum; preemergence, 2.0 kg/ha): 95 percentage damage | percentage damage (Solanum nigrum; preemergence, 4.0 kg/ha): 95 percentage damage | percentage damage (Solanum nigrum; preemergence, 8.0 kg/ha): 95 percentage damage | percentage damage (Lamium spp.; postemergence, 2.0 kg/ha): 60 percentage damage | percentage damage (Lamium spp.; postemergence, 4.0 kg/ha): 90 percentage damage | percentage damage (Lamium spp.; postemergence, 8.0 kg/ha): 90 percentage damage | percentage damage (Lamium spp.; preemergence, 2.0 kg/ha): 95 percentage damage | percentage damage (Lamium spp.; preemergence, 4.0 kg/ha): 95 percentage damage | percentage damage (Lamium spp.; preemergence, 8.0 kg/ha): 95 percentage damage | pest or weed control at 2000 g/ha (Galium aparine; [3]): 10% | pest or weed control at 4000 g/ha (Galium aparine; post-emergence, postemergence, 4.0 kg/ha): 15% | pest or weed control at 8000 g/ha (Galium aparine; post-emergence, postemergence, 8.0 kg/ha): 20% | pest or weed control at 2000 g/ha (Galium aparine; [4]): 80% | pest or weed control at 4000 g/ha (Galium aparine; pre-emergence, preemergence, 4.0 kg/ha): 100% | pest or weed control at 8000 g/ha (Galium aparine; pre-emergence, preemergence, 8.0 kg/ha): 100% | pest or weed control at 2000 g/ha (Poa annua; [3]): 35% | pest or weed control at 4000 g/ha (Poa annua; post-emergence, postemergence): 40% | pest or weed control at 8000 g/ha (Poa annua; post-emergence, postemergence): 50% | pest or weed control at 4000 g/ha (Poa annua; pre-emergence, preemergence): 100% | pest or weed control at 8000 g/ha (Poa annua; pre-emergence, preemergence): 100% | percentage damage (Poa annua; preemergence, 2.0 kg/ha): 100 percentage damage
